{"source": "paper PMC12274840", "about": "(The Journal of Biological Chemistry, 2025)", "key": {"[1]": {"system": "E. coli KA797 cells carrying BlaC position 105 library", "type": "cell-based, Escherichia coli"}, "[2]": {"system": "E. coli KA797 cells carrying TEM-1 position 105 library", "type": "cell-based", "conditions": "for Fi MEM AVG: average of replicates"}}, "note": "Read-outs that look alike come from different tables or passages of the source.", "data": [{"smiles": "C[C@@H](O)[C@H]1C(=O)N2C(C(=O)O)=C(S[C@@H]3CN[C@H](C(=O)N(C)C)C3)[C@H](C)[C@H]12", "note": "[meropenem]", "values": [{"measurement": "Fi MEM 3", "setting": "[1]; AA 105 Tyr, meropenem, replicate 3", "result": 0.185}, {"measurement": "Fi AVG (average fitness)", "setting": "[1]; AA 105 Val (BlaC I105V), relative to WT Ile, average of replicates", "result": -0.016}, {"measurement": "Fi MEM AVG", "setting": "[1]; AA 105 Val, meropenem, average of replicates", "result": -0.855}, {"measurement": "Fi MEM 1", "setting": "[1]; AA 105 Val, meropenem, replicate 1", "result": 0.059}, {"measurement": "Fi MEM 2", "setting": "[1]; AA 105 Val, meropenem, replicate 2", "result": -2.574}, {"measurement": "Fi MEM 3", "setting": "[1]; AA 105 Val, meropenem, replicate 3", "result": -0.049}, {"measurement": "WT abs Fi 1", "setting": "[1]; WT (Ile 105) absolute fitness, meropenem, replicate 1", "result": 0.125}, {"measurement": "WT abs Fi 2", "setting": "[1]; WT (Ile 105) absolute fitness, meropenem, replicate 2", "result": 0.070}, {"measurement": "WT abs Fi 3", "setting": "[1]; WT (Ile 105) absolute fitness, meropenem, replicate 3", "result": 0.109}, {"measurement": "Fi MEM AVG", "setting": "[2]; AA 105 Ala", "result": 0.062}, {"measurement": "Fi MEM 1", "setting": "[2]; AA 105 Ala, replicate 1", "result": 0.046}, {"measurement": "Fi MEM 2", "setting": "[2]; AA 105 Ala, replicate 2", "result": 0.488}, {"measurement": "Fi MEM 3", "setting": "[2]; AA 105 Ala, replicate 3", "result": -0.350}, {"measurement": "Fi MEM AVG", "setting": "[2]; AA 105 Arg", "result": 0.048}, {"measurement": "Fi MEM 1", "setting": "[2]; AA 105 Arg, replicate 1", "result": 0.163}, {"measurement": "Fi MEM 2", "setting": "[2]; AA 105 Arg, replicate 2", "result": 0.269}, {"measurement": "Fi MEM 3", "setting": "[2]; AA 105 Arg, replicate 3", "result": -0.287}, {"measurement": "Fi MEM AVG", "setting": "[2]; AA 105 Asn", "result": -0.031}, {"measurement": "Fi MEM 1", "setting": "[2]; AA 105 Asn, replicate 1", "result": -0.022}, {"measurement": "Fi MEM 2", "setting": "[2]; AA 105 Asn, replicate 2", "result": 0.493}, {"measurement": "Fi MEM 3", "setting": "[2]; AA 105 Asn, replicate 3", "result": -0.563}, {"measurement": "Fi MEM AVG", "setting": "[2]; AA 105 Asp", "result": -0.366}, {"measurement": "Fi MEM 1", "setting": "[2]; AA 105 Asp, replicate 1", "result": -1.030}, {"measurement": "Fi MEM 2", "setting": "[2]; AA 105 Asp, replicate 2", "result": 0.356}, {"measurement": "Fi MEM 3", "setting": "[2]; AA 105 Asp, replicate 3", "result": -0.424}, {"measurement": "Fi MEM AVG", "setting": "[2]; AA 105 Cys", "result": 0.031}, {"measurement": "Fi MEM 1", "setting": "[2]; AA 105 Cys, replicate 1", "result": 0.333}, {"measurement": "Fi MEM 2", "setting": "[2]; AA 105 Cys, replicate 2", "result": 0.230}, {"measurement": "Fi MEM 3", "setting": "[2]; AA 105 Cys, replicate 3", "result": -0.470}, {"measurement": "Fi MEM AVG", "setting": "[2]; AA 105 Gln", "result": -0.069}, {"measurement": "Fi MEM 1", "setting": "[2]; AA 105 Gln, replicate 1", "result": -0.210}, {"measurement": "Fi MEM 2", "setting": "[2]; AA 105 Gln, replicate 2", "result": 0.084}, {"measurement": "Fi MEM 3", "setting": "[2]; AA 105 Gln, replicate 3", "result": -0.080}, {"measurement": "Fi MEM AVG", "setting": "[2]; AA 105 Glu", "result": -0.063}, {"measurement": "Fi MEM 1", "setting": "[2]; AA 105 Glu, replicate 1", "result": -0.084}, {"measurement": "Fi MEM 2", "setting": "[2]; AA 105 Glu, replicate 2", "result": 0.140}, {"measurement": "Fi MEM 3", "setting": "[2]; AA 105 Glu, replicate 3", "result": -0.245}, {"measurement": "Fi MEM AVG", "setting": "[2]; AA 105 Gly", "result": -0.130}, {"measurement": "Fi MEM 1", "setting": "[2]; AA 105 Gly, replicate 1", "result": -0.195}, {"measurement": "Fi MEM 2", "setting": "[2]; AA 105 Gly, replicate 2", "result": 0.032}, {"measurement": "Fi MEM 3", "setting": "[2]; AA 105 Gly, replicate 3", "result": -0.226}, {"measurement": "Fi MEM AVG", "setting": "[2]; AA 105 His", "result": -0.172}, {"measurement": "Fi MEM 1", "setting": "[2]; AA 105 His, replicate 1", "result": -0.391}, {"measurement": "Fi MEM 2", "setting": "[2]; AA 105 His, replicate 2", "result": 0.351}, {"measurement": "Fi MEM 3", "setting": "[2]; AA 105 His, replicate 3", "result": -0.475}, {"measurement": "Fi MEM AVG", "setting": "[2]; AA 105 Ile", "result": 0.078}, {"measurement": "Fi MEM 1", "setting": "[2]; AA 105 Ile, replicate 1", "result": 0.231}, {"measurement": "Fi MEM 2", "setting": "[2]; AA 105 Ile, replicate 2", "result": 0.143}, {"measurement": "Fi MEM 3", "setting": "[2]; AA 105 Ile, replicate 3", "result": -0.140}, {"measurement": "Fi MEM AVG", "setting": "[2]; AA 105 Leu", "result": -0.036}, {"measurement": "Fi MEM 1", "setting": "[2]; AA 105 Leu, replicate 1", "result": -0.102}, {"measurement": "Fi MEM 2", "setting": "[2]; AA 105 Leu, replicate 2", "result": 0.170}, {"measurement": "Fi MEM 3", "setting": "[2]; AA 105 Leu, replicate 3", "result": -0.177}, {"measurement": "Fi MEM AVG", "setting": "[2]; AA 105 Lys", "result": -0.052}, {"measurement": "Fi MEM 1", "setting": "[2]; AA 105 Lys, replicate 1", "result": -0.122}, {"measurement": "Fi MEM 2", "setting": "[2]; AA 105 Lys, replicate 2", "result": 0.122}, {"measurement": "Fi MEM 3", "setting": "[2]; AA 105 Lys, replicate 3", "result": -0.155}, {"measurement": "Fi MEM AVG", "setting": "[2]; AA 105 Met", "result": -0.379}, {"measurement": "Fi MEM 1", "setting": "[2]; AA 105 Met, replicate 1", "result": -0.840}, {"measurement": "Fi MEM 2", "setting": "[2]; AA 105 Met, replicate 2", "result": 0.139}, {"measurement": "Fi MEM 3", "setting": "[2]; AA 105 Met, replicate 3", "result": -0.436}, {"measurement": "Fi MEM AVG", "setting": "[2]; AA 105 Phe", "result": -0.175}, {"measurement": "Fi MEM 1", "setting": "[2]; AA 105 Phe, replicate 1", "result": 0.171}, {"measurement": "Fi MEM 2", "setting": "[2]; AA 105 Phe, replicate 2", "result": -0.315}, {"measurement": "Fi MEM 3", "setting": "[2]; AA 105 Phe, replicate 3", "result": -0.381}, {"measurement": "Fi MEM AVG", "setting": "[2]; AA 105 Pro", "result": -0.026}, {"measurement": "Fi MEM 1", "setting": "[2]; AA 105 Pro, replicate 1", "result": 0.015}, {"measurement": "Fi MEM 2", "setting": "[2]; AA 105 Pro, replicate 2", "result": 0.091}, {"measurement": "Fi MEM 3", "setting": "[2]; AA 105 Pro, replicate 3", "result": -0.184}, {"measurement": "Fi MEM AVG", "setting": "[2]; AA 105 Ser", "result": -0.010}, {"measurement": "Fi MEM 1", "setting": "[2]; AA 105 Ser, replicate 1", "result": 0.139}, {"measurement": "Fi MEM 2", "setting": "[2]; AA 105 Ser, replicate 2", "result": 0.033}, {"measurement": "Fi MEM 3", "setting": "[2]; AA 105 Ser, replicate 3", "result": -0.203}, {"measurement": "Fi MEM AVG", "setting": "[2]; AA 105 Thr", "result": -0.084}, {"measurement": "Fi MEM 1", "setting": "[2]; AA 105 Thr, replicate 1", "result": -0.289}, {"measurement": "Fi MEM 2", "setting": "[2]; AA 105 Thr, replicate 2", "result": 0.235}, {"measurement": "Fi MEM 3", "setting": "[2]; AA 105 Thr, replicate 3", "result": -0.199}, {"measurement": "Fi MEM AVG", "setting": "[2]; AA 105 Trp", "result": -0.176}, {"measurement": "Fi MEM 1", "setting": "[2]; AA 105 Trp, replicate 1", "result": -0.657}, {"measurement": "Fi MEM 2", "setting": "[2]; AA 105 Trp, replicate 2", "result": 0.184}, {"measurement": "Fi MEM 3", "setting": "[2]; AA 105 Trp, replicate 3", "result": -0.056}, {"measurement": "Fi MEM AVG", "setting": "[2]; AA 105 Tyr", "result": 0.000}, {"measurement": "Fi MEM 1", "setting": "[2]; AA 105 Tyr, replicate 1", "result": 0.000}, {"measurement": "Fi MEM 2", "setting": "[2]; AA 105 Tyr, replicate 2", "result": 0.000}, {"measurement": "Fi MEM 3", "setting": "[2]; AA 105 Tyr, replicate 3", "result": 0.000}, {"measurement": "Fi MEM AVG", "setting": "[2]; AA 105 Val", "result": -0.088}, {"measurement": "Fi MEM 1", "setting": "[2]; AA 105 Val, replicate 1", "result": -0.115}, {"measurement": "Fi MEM 2", "setting": "[2]; AA 105 Val, replicate 2", "result": 0.193}, {"measurement": "Fi MEM 3", "setting": "[2]; AA 105 Val, replicate 3", "result": -0.342}, {"measurement": "WT abs Fi 1", "setting": "[2]; absolute fitness of TEM-1 WT, MEM, replicate 1", "result": 0.006}, {"measurement": "WT abs Fi 2", "setting": "[2]; absolute fitness of TEM-1 WT, MEM, replicate 2", "result": -0.204}, {"measurement": "WT abs Fi 3", "setting": "[2]; absolute fitness of TEM-1 WT, MEM, replicate 3", "result": 0.439}]}]}
